According to ChEMBL document CHEMBL1201862, “PubChem BioAssay data set” (2004):
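Following 48 hours of exposure in 96-well plates, responses at five concentrations were used to interpolate endpoints linearly. Abbreviation: GI50, concentration required for 50% inhibition of growth.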 Activity calls are given as the source filed them. Rule as the data show it: active = GI50 up to about 1.1 µM and inactive = higher. Where a SMILES comes first, the peptide text is derived from it. Bridges are numbered along the chain shown (N, C = ends). [ ]: non-standard residue; d: D form. The star is where a group is joined. ξ: configuration not given here. PhAc = O=C(Cc1ccccc1)*; ξP = O=C(O)C1CCCN1

What was measured:
Experiment in all cases: NCI anticancer screen, dose series, 48 h
DU-145 = system: DU-145
LOX IMVI = system: LOX IMVI
NCI-H23 = system: NCI-H23
SW-620 = system: SW-620
MDA-N = system: MDA-N
SNB-19 = system: SNB-19
OVCAR-8 = system: OVCAR-8
SN12C = system: SN12C
EKVX = system: EKVX
A549 = system: A549
SNB-75 = system: SNB-75
HT-29 = system: HT-29
M14 = system: M14
OVCAR-5 = system: OVCAR-5
PC-3 = system: PC-3
CCRF-CEM = system: CCRF-CEM
SR = system: SR
HOP-62 = system: HOP-62
HCT-116 = system: HCT-116

Row | Compound | GI50 (DU-145) | GI50 (LOX IMVI) | GI50 (NCI-H23) | GI50 (SW-620) | GI50 (MDA-N) | GI50 (SNB-19) | GI50 (OVCAR-8) | GI50 (SN12C) | GI50 (EKVX) | GI50 (A549) | GI50 (SNB-75) | GI50 (HT-29) | GI50 (M14) | GI50 (OVCAR-5) | GI50 (PC-3) | GI50 (CCRF-CEM) | GI50 (SR) | GI50 (HOP-62) | GI50 (HCT-116)
1 | Cn1c(NN)nc(-c2ccc([N+](=O)[O-])cc2)c(C#N)c1=O | 16.4 µM (inactive) | 17.1 µM (inactive) | 13.4 µM (inactive) | 12.7 µM (inactive) | 12.4 µM (inactive) | 13.5 µM (inactive) | 19.2 µM (inactive) | 15.6 µM (inactive) | 15.8 µM (inactive) | 19.8 µM (inactive) | 20.4 µM (inactive) | 12.8 µM (inactive) | 12.5 µM (inactive) | 20.8 µM (inactive) | 15.3 µM (inactive) | 25.4 µM (inactive) | 18.7 µM (inactive) | 14.1 µM (inactive) | 12.8 µM (inactive)
2 | COc1ccc(N2C(=O)C3c4[nH]c5ccccc5c4C4CCCCCCCCCC4C3C2=O)cc1 (configuration not stated) | > 10 µM (inactive) | > 10 µM (inactive) | > 10 µM (inactive) | > 10 µM (inactive) | > 10 µM (inactive) | > 10 µM (inactive) | > 10 µM (inactive) | > 10 µM (inactive) | > 10 µM (inactive) | > 10 µM (inactive) | > 10 µM (inactive) | > 10 µM (inactive) | > 10 µM (inactive) | > 10 µM (inactive) | > 10 µM (inactive) | > 10 µM (inactive) | > 10 µM (inactive) | > 10 µM (inactive) | > 10 µM (inactive)
3 | C=C1c2nc3ccccc3n2C=C(c2ccc(C)cc2)N1c1ccccc1 | 3.9 µM (inactive) | 5.24 µM (inactive) | 4.02 µM (inactive) | 1.67 µM (inactive) | 0.508 µM (active) | 4.04 µM (inactive) | 5.14 µM (inactive) | 6.22 µM (inactive) | 2.9 µM (inactive) | 5.55 µM (inactive) | 2.08 µM (inactive) | 1.61 µM (inactive) | 3.12 µM (inactive) | 20.7 µM (inactive) | 2.75 µM (inactive) | 3.3 µM (inactive) | 0.445 µM (active) | 6.49 µM (inactive) | 2.9 µM (inactive)
4 | O=C(/C=C/c1ccc([N+](=O)[O-])cc1)c1nc2ccccc2[nH]1 | 97.3 µM (inactive) | 24.3 µM (inactive) |  | 26.2 µM (inactive) | 72.1 µM (inactive) | > 93.3 µM (inactive) | > 70.5 µM (inactive) | > 100 µM (inactive) | 61.5 µM (inactive) | > 45.9 µM (inactive) | 45.3 µM (inactive) | 38.5 µM (inactive) | > 88.9 µM (inactive) | 3.54 µM (inactive) | > 64.4 µM (inactive) | 20 µM (inactive) | 2.49 µM (inactive) | > 34.2 µM (inactive) | 1.88 µM (inactive)
5 | COC(=O)C1(C)CCc2c(ccc3ccccc23)C1=O (configuration not stated) | 51.9 µM (inactive) | 36.1 µM (inactive) | 51.6 µM (inactive) | 39 µM (inactive) | 27 µM (inactive) | 45.2 µM (inactive) | 40.1 µM (inactive) | 44.7 µM (inactive) | 31.8 µM (inactive) | 39.3 µM (inactive) | 44.8 µM (inactive) | 40.2 µM (inactive) | 29.9 µM (inactive) | > 100 µM (inactive) | 40.9 µM (inactive) | 37.3 µM (inactive) | 39.4 µM (inactive) | 78.7 µM (inactive) | 33.7 µM (inactive)
6 | O=C(Cc1ccccc1)N[C@@H]1COC(=O)C2CCCN2C(=O)[C@@H]2CCCN2C1=O (some centres not stated) (PhAc-[dS]-Pro-[ξP]; ester 1-C) | > 100 µM (inactive) | > 100 µM (inactive) | > 100 µM (inactive) | > 100 µM (inactive) | > 100 µM (inactive) | > 100 µM (inactive) | > 100 µM (inactive) | > 100 µM (inactive) | > 100 µM (inactive) | > 100 µM (inactive) | < 0.01 µM (active) | > 100 µM (inactive) | > 100 µM (inactive) | > 100 µM (inactive) | > 100 µM (inactive) | > 100 µM (inactive) | > 100 µM (inactive) | > 100 µM (inactive) | > 100 µM (inactive)
7 | C=CCOc1ccc(C(/N=N\c2ccc(Cl)cc2)=N/NC(=O)c2ccccc2)cc1OC | > 100 µM (inactive) | 48 µM (inactive) | 60 µM (inactive) | > 100 µM (inactive) | 35 µM (inactive) | > 100 µM (inactive) | 37.5 µM (inactive) | 50.5 µM (inactive) | > 100 µM (inactive) | > 100 µM (inactive) | 60.3 µM (inactive) | 52.7 µM (inactive) | 73.5 µM (inactive) | > 100 µM (inactive) | 49.5 µM (inactive) | 29.5 µM (inactive) | > 100 µM (inactive) | > 100 µM (inactive) | 64.4 µM (inactive)
